Here are results for 2 compounds from US11945875B2, “Motile sperm domain containing protein 2 and cancer” (ImmuneWalk Therapeutics, Inc., priority 2015, dated 2024).

Entries after “also recorded” stand apart in the source; their conditions may differ.

Test [1] has as its system EGF induced phosphorylation of AKT. Kind of test: EGF-induced phosphorylation of AKT in MDA-231 cells, Western blot. In kind it is cell-based, human. Conditions: 20 min pre-incubation, EGF 200 ng/ml 10 min. The procedure:
In vitro: To test the effect of VB-201 on epidermal growth factor (EGF)-induced phosphorylation, MDA-231 breast cancer cells (10^6) were starved for 3 hours in 0.5% FCS medium, followed by incubation with various concentrations of VB-201 (1 μg/ml, 5 μg/ml, and 10 μg/ml) or a solvent control for 20 minutes. The MDA-231 cells were then activated with EGF (200 ng/ml) for 10 min. Phosphorylation of AKT was then analyzed by Western Blot. HSP90 was used for a loading control.
On the technique in general: A western blot detects proteins with antibodies after separation by electrophoresis.

For another test, the target named is T1, TLR2 (Homo sapiens, UniProt O60603).
T1 construct: endogenous in cells; host or cells: human CD14 monocytes
T1 sequence (O60603 21-784): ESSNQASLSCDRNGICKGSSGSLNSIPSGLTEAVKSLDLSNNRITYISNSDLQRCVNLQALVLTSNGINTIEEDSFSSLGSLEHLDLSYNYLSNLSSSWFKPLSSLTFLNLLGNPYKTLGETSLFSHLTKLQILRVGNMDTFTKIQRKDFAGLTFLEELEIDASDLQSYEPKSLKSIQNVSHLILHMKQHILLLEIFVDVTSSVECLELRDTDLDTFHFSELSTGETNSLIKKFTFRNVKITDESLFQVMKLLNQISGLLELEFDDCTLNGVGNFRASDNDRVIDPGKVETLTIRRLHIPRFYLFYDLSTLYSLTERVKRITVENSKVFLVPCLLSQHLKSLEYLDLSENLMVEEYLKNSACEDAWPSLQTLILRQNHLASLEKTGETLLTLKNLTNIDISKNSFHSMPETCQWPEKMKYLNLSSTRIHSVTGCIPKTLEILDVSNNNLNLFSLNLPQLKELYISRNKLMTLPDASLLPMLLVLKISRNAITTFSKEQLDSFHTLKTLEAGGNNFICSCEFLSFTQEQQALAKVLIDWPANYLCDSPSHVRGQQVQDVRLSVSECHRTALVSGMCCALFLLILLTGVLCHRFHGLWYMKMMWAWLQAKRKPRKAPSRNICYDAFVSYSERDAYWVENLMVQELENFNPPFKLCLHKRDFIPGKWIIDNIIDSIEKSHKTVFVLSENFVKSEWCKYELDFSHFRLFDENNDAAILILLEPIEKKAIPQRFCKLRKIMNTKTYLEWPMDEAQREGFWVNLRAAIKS
Kind of test: Precipitation of proteins from human CD14 monocyte lysate with labelled VB-201 or VB-221, Western blot. In kind it is binding. Conditions: ovalbumin-biotin labelled compound (OB201/OB221). On the procedure:
(§1) VB-201 and VB-221 were labeled with biotin as follows. VB-201, VB-221 and ovalbumin (OVA, Sigma, Israel) were dissolved in 0.1 M MES buffer (Thermo Scientific, Rockford, IL) and conjugated using EDC [1-ethyl-3-(dimethylaminopropyl) carbodiimide HCL] (Thermo Scientific) at a molar ratio of 100 (VB-201/VB-221):1 (OVA):240 (EDC) for 2-3 hr at room temperature. After which, samples were transferred to 10 kDa dialysis cassettes (Thermo Scientific) and dialyzed overnight against PBS. The ovalbumin bound VB-201 (OB201) and VB-221 (OB221) were then conjugated with amine-PEG2-biotin (in 0.1 M MES buffer) using EDC at a molar ratio of 1 (OB201/OB221):100 (amine-PEG2-biotin):700 (EDC). The reaction was allowed to proceed for 2-3 hours at room temperature after which samples were again transferred to a 10 kDa dialysis cassette and dialyzed overnight against PBS.
(§2) Cells were lysed using a 1% NP-40 lysis buffer containing 1:100 protease and phosphatase inhibitors, followed by 20 min incubation on ice and 15 min centrifugation at maximum speed. Samples were incubated overnight at 4° C. with solvent, OB201 or OB221 in a rotator. Streptavidin agarose beads (Sigma, Israel) were added for 2 hours. Protein elution was performed with lysis buffer without DTT for 10 min at room temperature. Sample loading, transfer and immuno-blotting were performed as described above. […]

In a further test the test system is human monocytes. The note with it: cited from earlier work.
Test [2] deals with T2, MOSPD2 (Homo sapiens, UniProt Q8NHP6).
T2 sequence (Q8NHP6 1-518): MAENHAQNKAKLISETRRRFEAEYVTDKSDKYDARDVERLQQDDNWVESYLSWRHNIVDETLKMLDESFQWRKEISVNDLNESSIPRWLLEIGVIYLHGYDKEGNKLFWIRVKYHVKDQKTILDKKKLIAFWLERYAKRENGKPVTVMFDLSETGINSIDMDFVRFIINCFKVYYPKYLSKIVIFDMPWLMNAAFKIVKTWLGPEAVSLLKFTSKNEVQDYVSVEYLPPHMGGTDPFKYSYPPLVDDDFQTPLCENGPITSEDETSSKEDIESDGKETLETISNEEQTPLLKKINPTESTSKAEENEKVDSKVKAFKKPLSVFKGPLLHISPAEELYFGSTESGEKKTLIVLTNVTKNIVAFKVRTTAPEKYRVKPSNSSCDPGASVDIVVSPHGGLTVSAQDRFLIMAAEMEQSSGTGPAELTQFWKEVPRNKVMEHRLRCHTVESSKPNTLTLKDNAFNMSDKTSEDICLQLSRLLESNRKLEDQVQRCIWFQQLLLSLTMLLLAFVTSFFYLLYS
Kind of test: Binding to HEK293 cells transfected with HA-tagged human MOSPD2. Also on record: expressed in transfected cells; host or cells: HEK293. The note with it: ovalbumin labeled compound. The text has this:
VB-201 inhibits human monocyte chemotaxis in vitro and signaling pathways activated downstream of chemokine receptors.

Test [3] concerns the target T2, MOSPD2. The test can be described thus: Precipitation of proteins from human CD14 monocyte lysate with labelled VB-201 or VB-221, Western blot. Conditions: ovalbumin-biotin labelled compound (OB201/OB221). Also on record: endogenous in cells; host or cells: human CD14 monocytes. Format: binding. The procedure:
as §1, §2

The target of test [4] is T2, MOSPD2. Kind of test: Mass-Spectrometry differential display of proteins precipitated from human monocytes. In kind it is binding. Also on record: endogenous in cells; host or cells: human CD14 monocytes. Conditions: labeled compound. The text has this: Using labeled VB-201 and VB-221, proteins from human monocytes were precipitated and differential display by Mass-Spectrometry, was studied.

Consider `CCCCCCCCCCCCCCCCOC[C@H](COP(=O)([O-])OCC[N+](C)(C)C)OCCCCC(=O)O` [VB-201, 1-hexadecyl-2-(4′-carboxy)butyl-glycero-3-phosphocholine], for which the “inhibition of EGF induced phosphorylation of AKT” value in test [1] (5 μg/ml) is given as “significant inhibition”; in test [1] (10 μg/ml), “nearly completely inhibits”. For the same compound, the “precipitation of TLR2” value on TLR2 is “comparable intensity”. The “inhibition of monocyte chemotaxis / chemokine-induced signaling and migration” value in the test with human monocytes was “inhibits migration”. Further, the “binding to HA-positive HEK293 cells expressing human MOSPD2” value on MOSPD2 [2] is listed as “strong binding”. The “binding / precipitation of MOSPD2” value at MOSPD2 [3] is “binds and precipitates MOSPD2; also recorded: markedly more intense than VB-221; also recorded: binds to MOSPD2”. Further, the “binding of MOSPD2 by Mass-Spectrometry” value on MOSPD2 [4] is given as “strong binding”.
Turning to `CCCCCCCCCCC(CCCCCCCC)COCC(COP(=O)([O-])OCC[N+](C)(C)C)OCCCCC(=O)O` (stereo not drawn) [VB-221, 1-(2′-octyl)dodecyl-2-(4′-carboxy)butyl-glycero-3-phosphocholine], at TLR2, the “precipitation of TLR2” value is “comparable intensity”. Moreover, the “inhibition of monocyte chemotaxis / chemokine-induced signaling and migration” value in the test on human monocytes is on record as “does not inhibit; also recorded: did not inhibit”.
